Measured values taken from patent publication US11203601B2, “Tricyclic compounds as glycogen synthase kinase 3 (GSK3) inhibitors and uses thereof” (The Broad Institute, Inc., priority 2017, dated 2021).

Experiments:
Test in all cases: Carna kinome panel
Assay type in all cases: biochemical
[1] = molecular target: CDK4/CycD3 (Homo sapiens (Human), UniProt P11802); conditions: read-out: % Inhibition at 10 μM of the test compound
[2] = molecular target: MLK2_ Cascade (Homo sapiens (Human), UniProt Q02779); conditions: read-out: % Inhibition at 10 μM of the test compound
[3] = molecular target: p38γ (Homo sapiens (Human), UniProt P53778); conditions: read-out: % Inhibition at 10 μM of the test compound
[4] = molecular target: FRK (Homo sapiens (Human), UniProt P42685); conditions: read-out: % Inhibition at 10 μM of the test compound
[5] = molecular target: CK1δ (Homo sapiens (Human), UniProt P48730); conditions: read-out: % Inhibition at 10 μM of the test compound
[6] = molecular target: MLK3_Cascade (Homo sapiens (Human), UniProt Q16584); conditions: read-out: % Inhibition at 10 μM of the test compound
[7] = molecular target: CHK1 (Homo sapiens (Human), UniProt O14757); conditions: read-out: % Inhibition at 10 μM of the test compound
[8] = molecular target: SIK (Homo sapiens (Human), UniProt P57059); conditions: read-out: % Inhibition at 10 μM of the test compound
[9] = molecular target: Erk1 (Homo sapiens (Human), UniProt P27361); conditions: read-out: % Inhibition at 10 μM of the test compound
[10] = molecular target: CDK6/CycD3 (Homo sapiens (Human), UniProt Q00534); conditions: read-out: % Inhibition at 10 μM of the test compound
[11] = molecular target: MGC42105 (Homo sapiens (Human), UniProt Q8IY84); conditions: read-out: % Inhibition at 10 μM of the test compound
[12] = molecular target: CHK2 (Homo sapiens (Human), UniProt O96017); conditions: read-out: % Inhibition at 10 μM of the test compound
[13] = molecular target: LTK (Homo sapiens (Human), UniProt P29376); conditions: read-out: % Inhibition at 10 μM of the test compound
Experimental: (§1) Briefly, a selection of compounds was screened against a panel of kinases at a single concentration of 10 μM. […] This was completed using one of two assays, depending on the kinase being examined: 1) IMAP Assay. A solution of 4× inhibitor, 4× substrate/ATP/metal solution and 2× kinase solution was prepared with assay buffer (20 mM HEPES, 0.01% Tween-20, 2 mM DTT, pH 7.4) and mixed, then incubated in 384-well black plates for 1 hour at room temperature. The IMAP binding reagent (IMAP Screening Express kit; Molecular Devices) was added to each well and incubated for 30 minutes. […] 2) Off-Chip Mobility Shift Assay (MSA). A solution of 4× inhibitor, 4× substrate/ATP/metal solution and 2× kinase solution was prepared with assay buffer (20 mM HEPES, 0.01% Triton X-100, 2 mM DTT, pH 7.5) and mixed, then incubated in 384-well plates for 1 or 5 hours depending on the kinase, at room temperature. Termination buffer (QuickScout Screening assist MSA; Carna Biosciences) was added to each well. The entire reaction mixture was then applied to a LabChip3000 system (Caliper Life Science), and the product and substrate peptide peaks were separated and quantified. […] The entire reaction mixture was then applied to a LabChip3000 system (Caliper Life Science), and the product and substrate peptide peaks were separated and quantified.

[14] = molecular target: RET(G691S) (Homo sapiens (Human), UniProt P07949, G691S); conditions: read-out: % Inhibition at 10 μM of the test compound
[15] = molecular target: PLK2 (Homo sapiens (Human), UniProt Q9NYY3); conditions: read-out: % Inhibition at 10 μM of the test compound
[16] = molecular target: Haspin (Homo sapiens (Human), UniProt Q8TF76); conditions: read-out: % Inhibition at 10 μM of the test compound
[17] = molecular target: LYNb (Homo sapiens (Human), UniProt P07948); conditions: read-out: % Inhibition at 10 μM of the test compound
[18] = molecular target: PKCζ (Homo sapiens (Human), UniProt Q05513); conditions: read-out: % Inhibition at 10 μM of the test compound
[19] = molecular target: TRKC (Homo sapiens (Human), UniProt Q16288); conditions: read-out: % Inhibition at 10 μM of the test compound
[20] = molecular target: WNK3 (Homo sapiens (Human), UniProt Q9BYP7); conditions: read-out: % Inhibition at 10 μM of the test compound
[21] = molecular target: PIM2 (Homo sapiens (Human), UniProt Q9P1W9); conditions: read-out: % Inhibition at 10 μM of the test compound
[22] = molecular target: BRK (Homo sapiens (Human), UniProt Q13882); conditions: read-out: % Inhibition at 10 μM of the test compound
[23] = molecular target: NEK9 (Homo sapiens (Human), UniProt Q8TD19); conditions: read-out: % Inhibition at 10 μM of the test compound
[24] = molecular target: SPHK2 (Homo sapiens (Human), UniProt Q9NRA0); conditions: read-out: % Inhibition at 10 μM of the test compound
[25] = tested on: COT_Cascade
Experimental: as §1

[26] = molecular target: FAK (Homo sapiens (Human), UniProt Q05397); conditions: read-out: % Inhibition at 10 μM of the test compound
[27] = molecular target: HIPK2 (Homo sapiens (Human), UniProt Q9H2X6); conditions: read-out: % Inhibition at 10 μM of the test compound
[28] = molecular target: MNK2 (Homo sapiens (Human), UniProt Q9HBH9); conditions: read-out: % Inhibition at 10 μM of the test compound
[29] = tested on: MAP2K1_Cascade
Experimental: as §1

[30] = molecular target: CK2α1/β (Homo sapiens (Human), UniProt P68400); conditions: read-out: % Inhibition at 10 μM of the test compound
Experimental: as §1

[31] = molecular target: AMPKα2/β1/γ1 (Homo sapiens (Human), UniProt P54646); conditions: read-out: % Inhibition at 10 μM of the test compound
[32] = molecular target: PHKG2 (Homo sapiens (Human), UniProt P15735); conditions: read-out: % Inhibition at 10 μM of the test compound
[33] = molecular target: EGFR(d746-750/T790M) (Homo sapiens (Human), UniProt P00533, DEL746-750/T790M); conditions: read-out: % Inhibition at 10 μM of the test compound
[34] = molecular target: TAOK2 (Homo sapiens (Human), UniProt Q9UL54); conditions: read-out: % Inhibition at 10 μM of the test compound
[35] = molecular target: JNK1 (Homo sapiens (Human), UniProt P45983); conditions: read-out: % Inhibition at 10 μM of the test compound
[36] = molecular target: FER (Homo sapiens (Human), UniProt P16591); conditions: read-out: % Inhibition at 10 μM of the test compound
[37] = molecular target: IRAK1 (Homo sapiens (Human), UniProt P51617); conditions: read-out: % Inhibition at 10 μM of the test compound
[38] = molecular target: PKR (Homo sapiens (Human), UniProt P19525); conditions: read-out: % Inhibition at 10 μM of the test compound
[39] = molecular target: CDC7/ASK (Homo sapiens (Human), UniProt O00311); conditions: read-out: % Inhibition at 10 μM of the test compound
[40] = molecular target: PAK2 (Homo sapiens (Human), UniProt Q13177); conditions: read-out: % Inhibition at 10 μM of the test compound
[41] = molecular target: TYK2 (Homo sapiens (Human), UniProt P29597); conditions: read-out: % Inhibition at 10 μM of the test compound
Sequence of TYK2 (P29597 whole entry): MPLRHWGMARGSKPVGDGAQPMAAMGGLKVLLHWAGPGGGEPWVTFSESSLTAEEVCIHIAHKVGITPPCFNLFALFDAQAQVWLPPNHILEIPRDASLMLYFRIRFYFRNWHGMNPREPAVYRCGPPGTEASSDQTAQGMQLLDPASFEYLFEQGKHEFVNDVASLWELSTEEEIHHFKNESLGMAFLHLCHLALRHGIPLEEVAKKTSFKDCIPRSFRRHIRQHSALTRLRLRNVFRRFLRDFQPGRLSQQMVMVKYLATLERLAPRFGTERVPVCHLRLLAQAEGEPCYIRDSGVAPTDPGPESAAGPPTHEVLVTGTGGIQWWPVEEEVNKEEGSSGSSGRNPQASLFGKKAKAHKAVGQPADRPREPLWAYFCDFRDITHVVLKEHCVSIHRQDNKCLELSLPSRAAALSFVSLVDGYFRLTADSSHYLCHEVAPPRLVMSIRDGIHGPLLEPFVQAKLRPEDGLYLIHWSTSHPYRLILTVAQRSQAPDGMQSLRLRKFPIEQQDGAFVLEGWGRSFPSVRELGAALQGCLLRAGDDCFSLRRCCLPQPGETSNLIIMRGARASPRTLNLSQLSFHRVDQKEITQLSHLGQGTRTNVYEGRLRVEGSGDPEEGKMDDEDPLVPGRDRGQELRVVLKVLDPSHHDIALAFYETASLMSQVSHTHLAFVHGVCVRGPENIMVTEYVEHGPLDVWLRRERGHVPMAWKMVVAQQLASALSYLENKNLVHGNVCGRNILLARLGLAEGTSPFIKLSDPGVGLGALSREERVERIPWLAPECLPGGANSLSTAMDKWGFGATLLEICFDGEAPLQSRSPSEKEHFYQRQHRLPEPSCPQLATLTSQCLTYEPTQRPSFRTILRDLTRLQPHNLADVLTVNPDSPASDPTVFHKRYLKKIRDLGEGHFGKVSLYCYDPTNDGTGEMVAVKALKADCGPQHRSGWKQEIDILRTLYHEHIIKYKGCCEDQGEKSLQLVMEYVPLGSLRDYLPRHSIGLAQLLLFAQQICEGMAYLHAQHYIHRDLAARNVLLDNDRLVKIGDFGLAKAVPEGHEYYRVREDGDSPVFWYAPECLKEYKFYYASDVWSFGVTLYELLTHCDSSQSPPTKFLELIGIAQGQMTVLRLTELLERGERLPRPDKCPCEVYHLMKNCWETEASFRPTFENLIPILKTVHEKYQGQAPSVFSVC

Sequence of BRK (Q13882 whole entry): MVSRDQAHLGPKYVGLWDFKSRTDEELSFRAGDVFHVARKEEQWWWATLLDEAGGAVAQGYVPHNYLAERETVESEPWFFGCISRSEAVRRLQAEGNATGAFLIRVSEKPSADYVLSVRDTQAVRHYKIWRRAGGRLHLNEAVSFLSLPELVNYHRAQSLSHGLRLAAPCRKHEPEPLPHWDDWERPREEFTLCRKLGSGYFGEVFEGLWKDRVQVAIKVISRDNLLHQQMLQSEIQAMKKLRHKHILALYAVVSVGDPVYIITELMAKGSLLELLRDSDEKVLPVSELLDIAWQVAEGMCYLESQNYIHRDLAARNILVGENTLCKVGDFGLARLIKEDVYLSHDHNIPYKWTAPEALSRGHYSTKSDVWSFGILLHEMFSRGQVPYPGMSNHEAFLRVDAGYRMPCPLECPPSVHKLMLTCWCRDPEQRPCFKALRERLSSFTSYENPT
Sequence of FRK (P42685 whole entry): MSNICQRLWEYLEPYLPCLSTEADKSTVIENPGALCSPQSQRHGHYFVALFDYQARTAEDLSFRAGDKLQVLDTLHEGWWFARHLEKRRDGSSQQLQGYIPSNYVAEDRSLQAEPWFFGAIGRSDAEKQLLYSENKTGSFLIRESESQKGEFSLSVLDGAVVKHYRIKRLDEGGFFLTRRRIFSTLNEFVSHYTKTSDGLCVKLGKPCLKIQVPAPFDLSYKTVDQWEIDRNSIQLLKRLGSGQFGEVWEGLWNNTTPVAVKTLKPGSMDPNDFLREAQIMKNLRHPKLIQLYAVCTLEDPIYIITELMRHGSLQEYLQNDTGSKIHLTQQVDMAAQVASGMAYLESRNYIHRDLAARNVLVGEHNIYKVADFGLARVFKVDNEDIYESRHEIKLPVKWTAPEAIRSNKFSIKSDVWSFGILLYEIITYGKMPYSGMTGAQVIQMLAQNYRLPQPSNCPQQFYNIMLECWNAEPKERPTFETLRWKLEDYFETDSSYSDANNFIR
Sequence of MLK2_ Cascade (Q02779 whole entry): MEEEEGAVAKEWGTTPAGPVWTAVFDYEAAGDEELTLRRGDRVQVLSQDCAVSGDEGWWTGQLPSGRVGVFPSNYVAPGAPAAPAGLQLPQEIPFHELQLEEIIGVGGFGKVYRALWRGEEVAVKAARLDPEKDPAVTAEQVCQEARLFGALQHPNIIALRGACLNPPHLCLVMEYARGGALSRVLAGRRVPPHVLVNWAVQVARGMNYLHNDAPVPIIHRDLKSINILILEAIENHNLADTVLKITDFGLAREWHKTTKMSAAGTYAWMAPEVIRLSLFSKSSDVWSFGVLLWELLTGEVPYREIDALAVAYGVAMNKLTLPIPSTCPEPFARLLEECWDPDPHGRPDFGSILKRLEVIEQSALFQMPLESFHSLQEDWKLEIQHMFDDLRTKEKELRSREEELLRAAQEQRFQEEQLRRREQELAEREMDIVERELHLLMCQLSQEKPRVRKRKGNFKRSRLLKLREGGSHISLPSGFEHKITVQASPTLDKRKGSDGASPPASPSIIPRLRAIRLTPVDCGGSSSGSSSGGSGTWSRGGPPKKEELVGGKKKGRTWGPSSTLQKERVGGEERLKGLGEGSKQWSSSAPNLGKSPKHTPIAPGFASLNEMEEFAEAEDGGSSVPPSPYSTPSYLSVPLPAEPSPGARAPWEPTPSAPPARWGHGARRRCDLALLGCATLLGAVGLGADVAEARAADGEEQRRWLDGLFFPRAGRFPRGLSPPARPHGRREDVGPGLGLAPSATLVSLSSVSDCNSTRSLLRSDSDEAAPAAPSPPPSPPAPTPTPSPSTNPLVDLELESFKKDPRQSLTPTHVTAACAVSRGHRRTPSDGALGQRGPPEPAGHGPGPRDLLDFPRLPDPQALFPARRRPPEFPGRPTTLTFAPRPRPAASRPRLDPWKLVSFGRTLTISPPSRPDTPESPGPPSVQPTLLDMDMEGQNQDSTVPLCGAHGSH
Sequence of RET(G691S) (P07949 29-1114 G691S): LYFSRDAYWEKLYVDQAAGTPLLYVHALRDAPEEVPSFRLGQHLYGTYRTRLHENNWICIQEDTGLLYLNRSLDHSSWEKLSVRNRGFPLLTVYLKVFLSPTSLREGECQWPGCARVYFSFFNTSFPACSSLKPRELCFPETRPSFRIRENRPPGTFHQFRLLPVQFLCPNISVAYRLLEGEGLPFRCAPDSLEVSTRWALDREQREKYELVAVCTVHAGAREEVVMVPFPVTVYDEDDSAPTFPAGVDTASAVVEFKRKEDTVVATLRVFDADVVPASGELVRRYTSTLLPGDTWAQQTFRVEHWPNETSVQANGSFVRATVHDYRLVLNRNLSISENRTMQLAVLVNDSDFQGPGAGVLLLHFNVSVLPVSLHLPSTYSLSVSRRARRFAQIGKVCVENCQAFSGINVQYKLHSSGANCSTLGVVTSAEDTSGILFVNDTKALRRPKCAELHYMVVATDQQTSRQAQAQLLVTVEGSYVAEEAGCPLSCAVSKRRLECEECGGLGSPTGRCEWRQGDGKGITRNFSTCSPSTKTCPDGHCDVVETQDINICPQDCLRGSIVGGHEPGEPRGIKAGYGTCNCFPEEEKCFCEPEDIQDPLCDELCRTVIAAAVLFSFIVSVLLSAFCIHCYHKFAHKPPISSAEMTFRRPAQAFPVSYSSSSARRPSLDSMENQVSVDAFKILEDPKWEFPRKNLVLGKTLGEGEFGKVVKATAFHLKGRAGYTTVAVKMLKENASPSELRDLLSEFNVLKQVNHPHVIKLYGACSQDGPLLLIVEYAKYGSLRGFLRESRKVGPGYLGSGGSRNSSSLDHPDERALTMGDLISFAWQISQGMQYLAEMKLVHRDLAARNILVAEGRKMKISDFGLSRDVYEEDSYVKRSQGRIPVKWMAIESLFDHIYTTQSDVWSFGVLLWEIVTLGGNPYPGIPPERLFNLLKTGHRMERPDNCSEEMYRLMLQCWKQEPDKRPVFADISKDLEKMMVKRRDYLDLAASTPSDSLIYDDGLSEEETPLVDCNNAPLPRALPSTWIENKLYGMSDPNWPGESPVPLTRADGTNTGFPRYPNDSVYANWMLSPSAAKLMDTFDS
Sequence of PKR (P19525 whole entry): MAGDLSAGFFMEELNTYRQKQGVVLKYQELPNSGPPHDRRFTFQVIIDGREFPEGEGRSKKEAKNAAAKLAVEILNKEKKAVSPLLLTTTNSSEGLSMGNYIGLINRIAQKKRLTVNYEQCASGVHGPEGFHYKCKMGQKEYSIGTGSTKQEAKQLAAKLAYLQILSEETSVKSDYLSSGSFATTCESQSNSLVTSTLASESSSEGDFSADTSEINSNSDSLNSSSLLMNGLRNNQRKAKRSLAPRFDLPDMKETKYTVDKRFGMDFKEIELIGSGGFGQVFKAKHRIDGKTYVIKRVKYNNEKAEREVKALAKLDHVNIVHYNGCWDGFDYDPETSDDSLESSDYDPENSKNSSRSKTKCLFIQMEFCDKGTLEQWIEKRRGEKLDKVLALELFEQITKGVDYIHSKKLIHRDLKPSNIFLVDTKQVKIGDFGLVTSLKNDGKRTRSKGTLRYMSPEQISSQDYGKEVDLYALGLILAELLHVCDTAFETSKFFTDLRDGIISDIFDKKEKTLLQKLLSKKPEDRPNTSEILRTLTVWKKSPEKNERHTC
Sequence of PIM2 (Q9P1W9 whole entry): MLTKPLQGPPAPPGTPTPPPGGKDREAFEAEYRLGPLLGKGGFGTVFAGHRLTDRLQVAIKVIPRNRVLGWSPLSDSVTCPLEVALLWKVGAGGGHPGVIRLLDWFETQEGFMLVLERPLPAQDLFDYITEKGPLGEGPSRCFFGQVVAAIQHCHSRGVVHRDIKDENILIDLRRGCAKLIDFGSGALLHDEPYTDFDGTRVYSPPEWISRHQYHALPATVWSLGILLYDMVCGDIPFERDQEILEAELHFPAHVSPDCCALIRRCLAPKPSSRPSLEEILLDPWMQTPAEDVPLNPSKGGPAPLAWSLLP

CCC1(c2ccccc2)C2=C(CC(C)(C)CC2=O)Nc2ncsc21 (centres unmarked) [Compound 1, 9-Ethyl-6,6-dimethyl-9-phenyl-5,6,7,9-tetrahydrothiazolo[4,5-b]quinolin-8(4H)-one]
inhibition at 10 µM [1]: 18.1%
inhibition at 10 µM [2]: 16.1%
inhibition at 10 µM [3]: 8.9%
inhibition at 10 µM [4]: 8.4%
inhibition at 10 µM [5]: 8.2%
inhibition at 10 µM [6]: 7.3%
inhibition at 10 µM [7]: 7%
inhibition at 10 µM [8]: 5.6%
inhibition at 10 µM [9]: 5.6%
inhibition at 10 µM [10]: 5.5%
inhibition at 10 µM [11]: 4.3%
inhibition at 10 µM [12]: 3.3%
inhibition at 10 µM [13]: 3.1%
inhibition at 10 µM [14]: 2.8%
inhibition at 10 µM [15]: 1.7%
inhibition at 10 µM [16]: 1.5%
inhibition at 10 µM [17]: 0.8%
inhibition at 10 µM [18]: 0.5%
inhibition at 10 µM [19]: 0.4%
inhibition at 10 µM [20]: 0.3%
inhibition at 10 µM [21]: 0.3%
inhibition at 10 µM [22]: 0.3%
inhibition at 10 µM [23]: 0.3%
inhibition at 10 µM [24]: -0.8%
% Inhibition at 10 μM of the test compound [25]: −1.5%
inhibition at 10 µM [26]: -2%
inhibition at 10 µM [27]: -2.5%
inhibition at 10 µM [28]: -2.8%
% Inhibition at 10 μM of the test compound [29]: −3.2%
inhibition at 10 µM [30]: -3.7%
inhibition at 10 µM [31]: -4.1%
inhibition at 10 µM [32]: -5%
inhibition at 10 µM [33]: -5.6%
inhibition at 10 µM [34]: -5.9%
inhibition at 10 µM [35]: -7.3%
inhibition at 10 µM [36]: -7.5%
inhibition at 10 µM [37]: -8.9%
inhibition at 10 µM [38]: -8.9%
inhibition at 10 µM [39]: -9.1%
inhibition at 10 µM [40]: -15.7%
inhibition at 10 µM [41]: -18.9%
